Source: article PMC11844072, “Novel 5,6-dichlorobenzimidazole derivatives as dual BRAFWT and BRAFV600E inhibitors: design, synthesis, anti-cancer activity and molecular dynamics simulations” (BMC Chemistry, 2025)

Assays:
Test in all cases: NCI 60 single concentration growth inhibition
Assay type in all cases: cell-based, human
[1] = system: SF-295; details: Homo sapiens, SF-295, CNS cancer, read-out: GI%
Method in brief: (§1)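 For the single-dose testing, a 10 µM concentration was applied for 48 h. Adherent lines were fixed with cold TCA, stained with SRB and read at 515 nm, and the result was reported as percent growth versus untreated cells.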

[2] = system: EKVX; details: Homo sapiens, Non-small cell lung cancer, read-out: GI%
Method in brief: as §1

[3] = system: CAKI-1; details: Homo sapiens, CAKI-1, Renal cancer, read-out: GI%
Method in brief: as §1

[4] = system: SK-OV-3; details: Homo sapiens, SK-OV-3, Ovarian cancer, read-out: GI%
Method in brief: as §1

[5] = system: ACHN; details: Homo sapiens, Renal cancer, read-out: GI%
Method in brief: as §1

[6] = system: PC-3; details: Homo sapiens, PC-3, Prostate cancer, read-out: GI%
Method in brief: as §1

[7] = system: HOP-62; details: Homo sapiens, HOP-62, Non-small cell lung cancer, read-out: GI%
Method in brief: as §1

[8] = system: NCI-H23; details: Homo sapiens, NCI-H23, Non-small cell lung cancer, read-out: GI%
Method in brief: as §1

[9] = system: A498; details: Homo sapiens, A498, Renal cancer, read-out: GI%
Method in brief: as §1

[10] = system: MDA-MB-468; details: Homo sapiens, MDA-MB-468, Breast cancer, read-out: GI%
Method in brief: as §1

[11] = system: OVCAR-3; details: Homo sapiens, OVCAR-3, Ovarian cancer, read-out: GI%
Procedure: (§2) The synthesized dichlorobenzimidazoles 10a–p were assayed for their influence on divers cancer cell lines according to the method presented in the Additional file A.
(§3) 5. Screening of cytotoxic activity against a panel of sixty human tumor cell lines
(§4) The selected compounds by NCI were evaluated for their anticancer activity in a two-stage process. First, these compounds were screened against the full NCI 60 cell lines panel at a single high dose of 10 µM. Then, the output from the single dose screen is reported as a mean graph. […]
(§5) Assay protocol. The human tumor cell lines of the cancer screening panel are grown in RPMI 1640 medium containing 5% fetal bovine serum and 2 mM L-glutamine. For a typical screening experiment, cells are inoculated into 96 well microtiter plates in 100 µL at plating densities ranging from 5000 to 40,000 cells/well depending on the doubling time of individual cell lines. After cell inoculation, the microtiter plates are incubated at 37 °C, 5% CO 2, 95% air and 100% relative humidity for 24 h prior to addition of the experimental drugs.
(§6) After 24 h, two plates of each cell line are fixed in situ with TCA, to represent a measurement of the cell population for each cell line at the time of drug addition (Tz). The experimental drugs are solubilized in dimethyl sulfoxide at 400-fold the desired final maximum test concentration and stored frozen prior to use. At the time of drug addition, an aliquot of frozen concentrate is thawed and diluted to twice the desired final maximum test concentration with complete medium containing 50 µg/mL gentamicin. Additional four, 10-fold or ½ log serial dilutions are made to provide a total of five drug concentrations plus control.
(§7) Aliquots of […] of these different drug dilutions are added to the appropriate microtiter wells already containing […] of medium, resulting in the required final drug concentrations.
(§8) Following drug addition, the plates are incubated for an additional 48 h at 37 °C, 5% CO 2, 95% air, and 100% relative humidity. For adherent cells, the assay is terminated by the addition of cold TCA.
(§9) Cells are fixed in situ by the gentle addition of 50 µL of cold 50% (w/v) TCA (final concentration, 10% TCA) and incubated for 60 min at 4 °C. The supernatant is discarded, and the plates are washed five times with tap water and air dried. Sulforhodamine B (SRB) solution ([…]) at 0.4% (w/v) in 1% acetic acid is added to each well, and plates are incubated for 10 min at room temperature. After staining, unbound dye is removed by washing five times with 1% acetic acid and the plates are air dried. Bound stain is subsequently solubilized with 10 mM trizma base, and the absorbance is read on an automated plate reader at a wavelength of 515 nm. For suspension cells, the methodology is […]
(§10) the same except that the assay is terminated by fixing settled cells at the bottom of the wells by gently adding 50 µl of 80% TCA (final concentration, 16% TCA). Using the seven absorbance measurements [time zero, (Tz), control growth, (C), and test growth in the presence of drug at the five concentration levels (Ti)], the percentage growth is calculated at each of the drug concentrations […]
(§11) Percentage growth inhibition is calculated as: [(Ti Tz)/(C–Tz)] x 100 for concentrations for which Ti>/=Tz and [(Ti-Tz)/Tz] x 100 for concentrations for which Ti < Tz. […]
(§12) Results for each compound were reported as a mean graph of the percent growth of the treated cells when compared to the untreated control cells. There after obtaining the results for one dose assay, analysis of historical Development Therapeutics Programme (DTP) was performed and compounds which satisfies predetermined threshold inhibition criteria is selected for NCI full panel 5 dose assay.

[12] = system: HCT-15; details: Homo sapiens, HCT-15, Colon cancer, read-out: GI%
Procedure: as §2, §3, §4, §5, §6, §7, §8, §9, §10, §11, §12

[13] = system: HT29; details: Homo sapiens, HT-29, HT29, Colon cancer, read-out: GI%
Procedure: as §2, §3, §4, §5, §6, §7, §8, §9, §10, §11, §12

[14] = system: TK-10; details: Homo sapiens, TK-10, Renal cancer, read-out: GI%
Procedure: as §2, §3, §4, §5, §6, §7, §8, §9, §10, §11, §12

[15] = system: NCI-H522; details: Homo sapiens, NCI-H522, Non-small cell lung cancer, read-out: GI%
Procedure: as §2, §3, §4, §5, §6, §7, §8, §9, §10, §11, §12

[16] = system: LOX IMVIL; details: Homo sapiens, Melanoma, read-out: GI%
Procedure: as §2, §3, §4, §5, §6, §7, §8, §9, §10, §11, §12

[17] = system: OVCAR-4; details: Homo sapiens, OVCAR-4, Ovarian cancer, read-out: GI%
Procedure: as §2, §3, §4, §5, §6, §7, §8, §9, §10, §11, §12

[18] = system: U251; details: Homo sapiens, U-251, U251, CNS cancer, read-out: GI%
Procedure: as §2, §3, §4, §5, §6, §7, §8, §9, §10, §11, §12

[19] = system: DU-145; details: Homo sapiens, DU-145, Prostate cancer, read-out: GI%
Procedure: as §2, §3, §4, §5, §6, §7, §8, §9, §10, §11, §12

| Compound | inhibition at 10 µM [1] [%] | inhibition at 10 µM [2] [%] | inhibition at 10 µM [3] [%] | inhibition at 10 µM [4] [%] | inhibition at 10 µM [5] [%] | inhibition at 10 µM [6] [%] | inhibition at 10 µM [7] [%] | inhibition at 10 µM [8] [%] | inhibition at 10 µM [9] [%] | inhibition at 10 µM [10] [%] | inhibition at 10 µM [11] [%] | inhibition at 10 µM [12] [%] | inhibition at 10 µM [13] [%] | inhibition at 10 µM [14] [%] | inhibition at 10 µM [15] [%] | inhibition at 10 µM [16] [%] | inhibition at 10 µM [17] [%] | inhibition at 10 µM [18] [%] | inhibition at 10 µM [19] [%] |
| --- | --- | --- | --- | --- | --- | --- | --- | --- | --- | --- | --- | --- | --- | --- | --- | --- | --- | --- | --- |
| COc1ccc(-c2nc3cc(Cl)c(Cl)cc3n2CC(=O)NN=Cc2ccc(O)cc2)cc1 [Compound 10b, 2-(5,6-Dichloro-2-(4-methoxyphenyl)-1H-benzo[d]imidazol-1-yl)-N'-(4-hydroxybenzylidene)acetohydrazide] | 34 | 52.6 | 57.2 | 24.6 | 33.4 | 40.7 | 19.3 | 20.3 | 25.9 | 90.1 | 27 | 52.3 | 25.1 | 13.9 | 21.8 | 42.6 | 52.8 | 42.8 | 30.8 |
| COc1ccc(-c2nc3cc(Cl)c(Cl)cc3n2CC(=O)NN=Cc2cccc(OC)c2)cc1 [Compound 10c, 2-(5,6-Dichloro-2-(4-methoxyphenyl)-1H-benzo[d]imidazol-1-yl)-N'-(3-methoxybenzylidene)acetohydrazide] | 22.3 | 30.4 | 43.5 | 10.1 | 20.4 | 29.5 | 6.68 | 10.2 | 22.7 | 76.1 | 14.4 | 44.2 | 5.29 | 5.88 | 15.1 | 30.3 | 42.1 | 26.6 | 23.3 |
| COc1ccc(C=NNC(=O)Cn2c(-c3ccc(OC)cc3)nc3cc(Cl)c(Cl)cc32)cc1 [Compound 10d, 2-(5,6-Dichloro-2-(4-methoxyphenyl)-1H-benzo[d]imidazol-1-yl)-N'-(4-methoxybenzylidene)acetohydrazide] | 66.8 | 76.8 | 52 | 30.4 | 40.2 | 68.5 | 23.6 | 50.9 | 47.2 | 81.8 | 22.7 | 62.9 | 37.5 | 34.9 | 27.9 | 24.7 | 65 | 38.6 | 41.2 |
| COc1ccc(-c2nc3cc(Cl)c(Cl)cc3n2CC(=O)NN=Cc2cccc(OCC(=O)O)c2)cc1 [Compound 10e, 2-(3-((2-(2-(5,6-Dichloro-2-(4-methoxyphenyl)-1H-benzo[d]imidazol-1-yl)acetyl)hydrazono)methyl)phenoxy)acetic acid] | < 5 | < 5 | < 5 | < 5 | < 5 | < 5 | < 5 | 5.12 | < 5 | < 5 | < 5 | < 5 | < 5 | < 5 | < 5 | < 5 | < 5 | < 5 | < 5 |
| COc1ccc(-c2nc3cc(Cl)c(Cl)cc3n2CC(=O)NN=Cc2ccc(OCC(=O)O)cc2)cc1 [Compound 10f, 2-(4-((2-(2-(5,6-Dichloro-2-(4-methoxyphenyl)-1H-benzo[d]imidazol-1-yl)acetyl)hydrazono)methyl)phenoxy)acetic acid] | < 5 | 5.96 | 15 | < 5 | < 5 | 8.65 | < 5 | < 5 | < 5 | 6.38 | < 5 | 6.73 | < 5 | < 5 | < 5 | 8.41 | < 5 | < 5 | < 5 |
| COC(=O)COc1cccc(C=NNC(=O)Cn2c(-c3ccc(OC)cc3)nc3cc(Cl)c(Cl)cc32)c1 [Compound 10g, Methyl-2-(3-((2-(2-(5,6-dichloro-2-(4-methoxyphenyl)-1H-benzo[d]imidazol-1-yl)acetyl)hydrazono)methyl)phenoxy)acetate] | < 5 | 13.2 | 10.5 | < 5 | < 5 | 36.9 | < 5 | < 5 | < 5 | 112 | < 5 | 21.4 | 51.7 | < 5 | 9.11 | 19.1 | < 5 | < 5 | 110 |
